Assay [1] addresses T1, reverse transcriptase of HIV (HIV-1 RT) (Human immunodeficiency virus type 1 group M subtype B, UniProt P03366).
T1 construct: the reverse transcriptase of HIV (HIV -1RT) from Boehringer Mannhium; purchased Boehringer Mannheim (printed 'Boehringer Mannhium')
As to the kind of experiment: Inhibition of HIV-1 reverse transcriptase ([3H]dTTP incorporation). The assay is classed as biochemical, Human Immunodeficiency Virus-1. The following applies: Tables IXa-IXc; unit inferred; NA=not active as an inhibitor. The method, then:
Test for Inhibition of Human Immunodeficiency Virus-1 Reverse Transcriptase
Analogous assays employed the reverse transcriptase of HIV (HIV -1RT) from Boehringer Mannhium.
Incorporation of radioactive dTTP was measured as follows. The standard reaction (100 μl) was carried out in a buffer containing 50 mM tris/HCl pH 8.2, 2.5 mM MgCl 2, 1 mM DTT, 80 mM KCl, 5 mM EGTA, 0.05% Triton X-100, 1 μCi[3H] dTTP (40 Ci/mmol, NEN), 10 μM […] and 10 μg/ml poly(A)/dT (from Pharmacia).

For assay [2], the target named is T2, HCV RdRp (NS5B RNA-dependent RNA polymerase) (Hepatitis C virus genotype 1b, UniProt P26663).
T2 construct: The HCV NS5B protein is the viral RdRp; made in house; host or cells: insect cells infected with recombinant baculovirus
As to the kind of experiment: Inhibition of hepatitis C virus RdRp (poly(A)/oligo(U), [3H]UTP incorporation). Type of assay: biochemical. Summed up:
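Baculovirus-expressed recombinant NS5B (20 nM) polymerised on poly(A) template (10 μg/ml) with oligo(U)12 primer, 10 μM UTP plus [3H]UTP, pH 7.5 Tris buffer with 5 mM MgCl2, 1 h at 22 °C. Acid-insoluble radioactivity counted on filters; IC50 fitted from residual activity with slope term.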

Assay [3] addresses T3, polymerase of hepatitis B virus (HBV pol) (Hepatitis B virus genotype D subtype ayw, UniProt P03156).
T3 construct: obtained in the form of viral particles from the sera of HBV positive patients; from tissue; host or cells: sera of HBV positive patients (viral particles)
As to the kind of experiment: Inhibition of hepatitis B virus polymerase (32P-dNTP incorporation, viral particles from patient sera). The assay is classed as biochemical. The following applies: Tables IXa-IXc; unit inferred; NA=not active as an inhibitor. The method, then:
Analogous assays employed the polymerase of hepatitis B virus (HBV pol), obtained in the form of viral particles from the sera of HBV positive patients. These particles contain a polymerase bound to an incomplete double stranded DNA template. In the assay the incorporation of ^32P-dNTP is measured as radioactivity incorporated in acid insoluble precipitate.
The standard reaction (100 μl) was carried out in a buffer containing 50 mM tris/HCl pH 7.5, 30 mM MgCl 2 , 1 mM DTT, 100 mM KCl, 0.02% Triton X-100, 1 μCi[^32P] dCTP (300 Ci/mmol, NEN), 1 μM dATP, dTTP, dGTP. After 1 hour incubation at 37° C. the reaction was stopped by adding 100 μl of 20% TCA and applying samples to DE81 filters. The filters were processed and IC50 values calculated as described above.

Setting [4] is: Tables I-VIII, 20 nM NS5B, 1 hour at 22° C., read-out: IC 50 (μM), HCV-polymerase.
The mark [5] stands for this setting: Tables IXa-IXc, unit inferred, read-out: HCV (IC50).

Read-outs that look alike come from different tables or passages of the source.

T2 sequence (P26663 2420-3010): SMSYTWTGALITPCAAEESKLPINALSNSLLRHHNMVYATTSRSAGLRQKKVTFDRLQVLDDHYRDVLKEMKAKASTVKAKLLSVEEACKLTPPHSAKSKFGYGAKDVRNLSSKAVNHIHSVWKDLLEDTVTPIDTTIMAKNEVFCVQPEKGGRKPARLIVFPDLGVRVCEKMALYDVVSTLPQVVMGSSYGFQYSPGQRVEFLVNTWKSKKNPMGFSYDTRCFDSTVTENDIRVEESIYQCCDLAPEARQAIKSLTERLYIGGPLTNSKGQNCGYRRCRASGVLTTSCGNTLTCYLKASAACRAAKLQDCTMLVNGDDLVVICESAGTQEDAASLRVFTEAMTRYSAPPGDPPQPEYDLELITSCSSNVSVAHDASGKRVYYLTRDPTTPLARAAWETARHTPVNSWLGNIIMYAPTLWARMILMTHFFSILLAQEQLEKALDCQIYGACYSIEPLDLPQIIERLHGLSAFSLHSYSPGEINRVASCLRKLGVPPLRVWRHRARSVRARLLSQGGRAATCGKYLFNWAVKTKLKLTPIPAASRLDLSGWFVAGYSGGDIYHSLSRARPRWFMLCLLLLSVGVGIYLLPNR
T3 sequence (P03156 whole entry): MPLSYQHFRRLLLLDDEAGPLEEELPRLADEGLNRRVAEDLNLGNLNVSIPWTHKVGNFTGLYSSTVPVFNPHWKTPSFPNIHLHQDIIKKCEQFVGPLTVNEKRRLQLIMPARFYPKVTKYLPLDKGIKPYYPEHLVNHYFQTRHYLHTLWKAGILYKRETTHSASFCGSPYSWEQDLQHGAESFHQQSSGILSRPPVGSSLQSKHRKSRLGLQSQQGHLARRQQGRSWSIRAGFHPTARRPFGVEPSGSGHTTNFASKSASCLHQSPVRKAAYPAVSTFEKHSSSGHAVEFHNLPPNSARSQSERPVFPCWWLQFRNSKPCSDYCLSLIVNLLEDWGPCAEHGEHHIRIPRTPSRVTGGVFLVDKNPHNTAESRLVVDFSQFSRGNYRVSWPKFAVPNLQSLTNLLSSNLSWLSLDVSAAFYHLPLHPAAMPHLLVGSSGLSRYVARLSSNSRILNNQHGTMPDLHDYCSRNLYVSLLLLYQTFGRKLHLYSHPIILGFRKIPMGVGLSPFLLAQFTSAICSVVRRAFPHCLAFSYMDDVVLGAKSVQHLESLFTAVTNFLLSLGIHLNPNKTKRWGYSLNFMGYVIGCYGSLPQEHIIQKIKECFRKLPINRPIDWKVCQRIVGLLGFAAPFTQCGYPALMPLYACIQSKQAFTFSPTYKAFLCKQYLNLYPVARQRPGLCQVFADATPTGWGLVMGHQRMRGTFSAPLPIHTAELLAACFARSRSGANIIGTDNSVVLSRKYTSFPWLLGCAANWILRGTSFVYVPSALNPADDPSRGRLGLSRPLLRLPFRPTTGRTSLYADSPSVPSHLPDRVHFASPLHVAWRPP

For `Cc1ccc(C(=O)C=C(O)C(=O)O)cc1` [Example 161], the IC50 in assay [1] is 320 µM; in assay [2] (setting [4]), 2.8 µM; in assay [2] (setting [5]) it was 2.8 µM.

Take `O=C(O)C(O)=CC(=O)c1ccc(-c2ccccc2)s1` [Example 196]: the IC50 came out at 50 µM in assay [1], 15 µM in assay [2] (setting [4]), 15 µM in assay [2] (setting [5]) and 9 µM in assay [3].

As for `O=C(O)C(O)=CC(=O)c1ccc(Cc2ccccc2)s1` [Example 202], the IC50 in assay [1] is greater than 100 µM; in assay [2] (setting [4]) it was 68 µM; in assay [2] (setting [5]) it was 70 µM; in assay [3], 9 µM.

Turning to `O=C(O)C(O)=CC(=O)c1ccc(Cc2cccc(F)c2)s1` [Example 205], the figures for the IC50 in assay [2] (setting [4]), in assay [2] (setting [5]) and in assay [3] were 74 µM, 74 µM and 3.3 µM, respectively.

In the case of `O=C(O)C(O)=CC(=O)c1ccc(Cc2ccc(F)cc2)s1` [Example 206], the IC50 in assay [2] (setting [4]) amounted to 65 µM; in assay [2] (setting [5]), 65 µM; in assay [3], 2 µM.

Regarding `O=C(O)C(O)=CC(=O)c1ccc(-c2ccc(F)c(Cl)c2)o1` [Example 218], the IC50 in assay [1] is 11.8 µM; in assay [2] (setting [4]), 41.2 µM; in assay [2] (setting [5]) it was 41.2 µM.

With `Cc1sc(-c2ccccc2)cc1C(=O)C=C(O)C(=O)O` [Example 225], the IC50 in assay [1] was found to be 86 µM; in assay [2] (setting [4]), 167 µM; in assay [2] (setting [5]) it was 167 µM; in assay [3], 4 µM.

On to `O=C(O)C(O)=CC(=O)C12CC3CC(CC(C3)C1)C2` [Example 243], for which the results for the IC50 in assay [1], in assay [2] (setting [4]) and in assay [2] (setting [5]) were 26.8 µM, 6.7 µM and 6.7 µM, respectively.

`O=C(O)C(O)=CC(=O)c1ccc(-c2cc(Cl)cc(Cl)c2)o1` [Example 258]: the figures for the IC50 in assay [1] and in assay [2] (setting [5]) were 3.6 µM and greater than 100 µM, respectively.

(Values after patent publication US7022736B2, “Enzyme inhibitors” (Istituto Di Ricerche Di Biologia Molecolare P Angeletti SpA, priority 1998, dated 2006).)
